Test results taken from the supplement of paper PMC10307832.

Assays:
Experiment in all cases: relative viability (nuclei count vs DMSO), 5 days (fraction); higher = more cells survive
TPCA-1 + Olaparib = compound: C1=CC(=CC=C1C2=CC(=C(S2)NC(=O)N)C(=O)N)F [TPCA-1] + O=C(c1cc(Cc2n[nH]c(=O)c3ccccc23)ccc1F)N1CCN(C(=O)C2CC2)CC1 [Olaparib] (partner 8 µM)
How it was run: (§1)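 Nuclei were stained with Hoechst during a one-step fixation (final 0.05% Triton X-100, 1% formaldehyde, 1 ug/ml Hoechst) carried out 5 days after dosing, then counted on 4× images. The cells, lung cancer lines in 1536-well plates, had been dosed by pin tool the day after seeding with one drug alone or a fixed anchor-drug dose plus five library-drug doses (not always all listed) in √10 steps. Relative viability is the nuclei count in treated wells divided by that in vehicle wells, and each value is the median of duplicate plates.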

TPCA-1 + Pemetrexed = compound: C1=CC(=CC=C1C2=CC(=C(S2)NC(=O)N)C(=O)N)F [TPCA-1] + Nc1nc2[nH]cc(CCc3ccc(C(=O)N[C@@H](CCC(=O)O)C(=O)O)cc3)c2c(=O)[nH]1 [Pemetrexed] (partner 0.2 µM)
How it was run: as §1

[1] = compound: C1/C(=C\C2=CC=CS2)/C(=O)/C(=C/C3=CC=CS3)/C1 + O=C(c1cc(Cc2n[nH]c(=O)c3ccccc23)ccc1F)N1CCN(C(=O)C2CC2)CC1 [Olaparib] (partner 8 µM)
How it was run: as §1

TPCA-1 + Phenformin = compound: C1=CC(=CC=C1C2=CC(=C(S2)NC(=O)N)C(=O)N)F [TPCA-1] + N=C(N)NC(=N)NCCc1ccccc1 [Phenformin] (partner 250 µM)
How it was run: as §1

Cell Line	relative viability (TPCA-1 + Olaparib; first compound 0.04 µM)	relative viability (TPCA-1 + Olaparib; first compound 0.1265 µM)	relative viability (TPCA-1 + Olaparib; first compound 0.4 µM)	relative viability (TPCA-1 + Olaparib; first compound 1.265 µM)	relative viability (TPCA-1 + Olaparib; first compound 4 µM)	relative viability (TPCA-1 + Pemetrexed; first compound 0.04 µM)	relative viability (TPCA-1 + Pemetrexed; first compound 0.1265 µM)	relative viability (TPCA-1 + Pemetrexed; first compound 0.4 µM)	relative viability (TPCA-1 + Pemetrexed; first compound 1.265 µM)	relative viability (TPCA-1 + Pemetrexed; first compound 4 µM)	relative viability ([1]; first compound 0.2 µM)	relative viability ([1]; first compound 0.6325 µM)	relative viability ([1]; first compound 2 µM)	relative viability ([1]; first compound 6.325 µM)	relative viability ([1]; first compound 20 µM)	relative viability (TPCA-1 + Phenformin; first compound 0.04 µM)	relative viability (TPCA-1 + Phenformin; first compound 0.1265 µM)	relative viability (TPCA-1 + Phenformin; first compound 0.4 µM)	relative viability (TPCA-1 + Phenformin; first compound 1.265 µM)	relative viability (TPCA-1 + Phenformin; first compound 4 µM)
NCI-H522	0.834	0.504	0.642	0.643	0.556	1.21	0.765	1.15	1.14	0.975	0.626	0.643	0.657	0.625	0.742	0.67	0.611	0.504	0.776	0.621
EMC-BAC-2	0.486	0.461	0.572	0.355	0.245	0.422	0.472	0.466	0.436	0.484	0.51	0.495	0.484	0.424	0.514	0.604	0.476	0.571	0.4	0.247
NCI-H1355	0.8	0.633	0.796	0.694	0.396	1.06	1	1.01	0.945	0.878	0.742	0.76	0.727	0.657	0.736	0.515	0.415	0.47	0.393	0.305
NCI-H23	0.317	0.234	0.285	0.353	0.192	0.614	0.668	0.72	0.61	0.235	0.398	0.324	0.301	0.382	0.309	0.813	0.764	0.759	0.681	0.353
NCI-H1651	0.192	0.177	0.185	0.171	0.134	0.601	0.538	0.532	0.527	0.338	0.174	0.207	0.197	0.19	0.229	0.361	0.295	0.368	0.327	0.262
NCI-H1975	0.843	0.72	0.806	0.735	0.6	0.305	0.297	0.3	0.298	0.286	0.757	0.795	0.855	0.538	0.782	0.445	0.392	0.435	0.405	0.312
COR-L23	0.393	0.329	0.286	0.303	0.325	0.206	0.207	0.184	0.193	0.196	0.408	0.367	0.323	0.388	0.325	0.483	0.47	0.436	0.415	0.328
HCC-44	0.983	0.938	0.95	0.908	0.937	0.617	0.657	0.575	0.627	0.595	0.959	0.985	0.907	0.896	0.989	0.195	0.178	0.209		0.153
